In test [1] the test system is tracheal smooth muscle (TSM) segments. As to the kind of experiment: Relaxation dose-response to isoproterenol in TSM segments half-maximally contracted with ACh. The class given is cell-based, rabbit. The procedure: Rabbits were anesthetized with xylazine (10 mg/kg) and ketarnine (50 mg/kg) and were subsequently sacrificed using an overdose of pentobarbital (130 mg/kg). The tracheae of the rabbits were removed via open thoracotomy, the tracheae were cleared of loose connective tissue and were divided into eight ring segments of 6-8 mm length. Each segment referred to herein as a tracheal smooth muscle (TSM) segment was incubated for 24 hours at room temperature in either of the following: 1) human serum containing immunoglobulin (Ig) E at greater than 1000 IU/ml which was obtained from allergic patients having moderate to severe asthma and a 4-5/6+radioallergosorbent test (RAST) positive (having a specific IgE concentration of more than 17.5 Phadebas RAST units (PRU)/ml) to Dermatophagoides pteronyssimus, Dermatophagoides farinae and ragweed, and a positive skin test to these antigens; or 2) human serum obtained from non-atopic, non-asthmatic individuals having normal serum IgE levels (i.e., <70 IU/ml) and negative skin test reactivity to Dermatophagoides pteronyssimus, Dermatophagoides farinae and ragweed (Hakonarson et al. 1995, Am. J. Physiol. (Lung Cell Mol. Physiol.) 269:L645-L652).
In parallel experiments, TSM segments were incubated in either control serum or in atopic asthmatic serum that was: a) depleted of its immunoglobulin complexes by pretreatment with sepharose Staphylococcus protein A as described (Kessler, 1975, J. Immunol. 1 15:161.7-1624); b) co-incubated with an anti-CD23 (40 μg/ml) monoclonal blocking antibody; or c) with an anti-CD 16 (2 μg/ml) monoclonal blocking antibody. The TSM segments were treated with their respective anti-CD23 or anti-CD16 antibodies in Dulbecco's modified Eagle's medium for 1 hour prior to exposure to the atopic asthmatic serum.
In extended experiments, paired TSM segments were incubated for 24 hours in Dulbecco's modified Eagle's medium, as previously described (Hakonarson et al., 1996, J. Clin. Invest. 97:2593-2600), containing either: a) human IgE (final bath concentration (FBC): 15 μg/ml); or b) human IgE-goat-anti-human IgE immune complexes (FBC: 15:5 μg/ml of IgE/anti-IgE in the final organ bath mixture). Tissues incubated in medium alone served as controls. The concentrations of immune complexes used for the TSM incubations were based on the results obtained in pilot studies which were designed to determine the concentration and ratio of immune complexes that induced the greatest acute contractile effect in isolated sensitized TSM segments. The serum was aerated with a continuous supplemental O2 mixture (95% O2/5% CO2) during the incubation phase.
Following incubation of the tissue preparations obtained as described herein, each rabbit airway segment was suspended longitudinally between stainless steel triangular supports in siliconized Harvard 20 ml organ baths. […] Care was taken to place the membranous portion of the trachea between the supports in order to maximize the recorded tension generated by the contracting trachealis muscle. The tissues were bathed in modified Krebs-Ringer solution containing 125 mM NaCl, 14 mM NaHCO3, 4 mM KCl, 2.25 mM CaCl2.H2O, 1.46 MgSO4.H2O, 1.2 mM NaH2PO4.H2O and 11 mM glucose. The baths were aerated with 5% CO2 in oxygen, a pH of 7.35-7.40 was maintained, and the organ bath temperature was held at 37° C. Passive resting tension of each TSM segment was set at 2.0 g after each tissue had been passively stretched to a tension of 8 g in order to optimize the resting length of each segment as described (Tanaka et al., 1990, J. Clin. Invest. 85:345-350). The tissues were allowed to equilibrate in the organ baths for 45 minutes, at which time each tissue was primed with a 1 minute exposure to 10−4 M acetylcholine (ACh). […]

Test [2] has the same test system. In words: Cholinergic contractility of isolated TSM segments to cumulative ACh (organ bath, isometric tension). The class given is cell-based, rabbit. The method, then:
Rabbits were anesthetized with xylazine (10 mg/kg) and ketarnine (50 mg/kg) and were subsequently sacrificed using an overdose of pentobarbital (130 mg/kg). The tracheae of the rabbits were removed via open thoracotomy, the tracheae were cleared of loose connective tissue and were divided into eight ring segments of 6-8 mm length. […]
Following incubation of the tissue preparations obtained as described herein, each rabbit airway segment was suspended longitudinally between stainless steel triangular supports in siliconized Harvard 20 ml organ baths. […] Care was taken to place the membranous portion of the trachea between the supports in order to maximize the recorded tension generated by the contracting trachealis muscle. […]

Setting [3] is: TSM incubated with control serum.

Counter-ions that a name gives are not always drawn.

The source of these data is patent US6630140B1, “Compositions and methods for treatment of asthma” (The Children's Hospital of Philadelphia, priority 1998, dated 2003).

For `CC(C)NCC(O)c1ccc(O)c(O)c1` (centres unmarked) [isoproterenol, isoproterenol hydrochloride], the “Rmax (% maximal relaxation) for isoproterenol” value in test [1] (IgE immune complex-treated TSM (15:5 μg/ml, 24 h)) was 36.8±10.4%; in test [1] (atopic asthmatic serum-sensitized TSM) it was 26.0±5.1%; in test [1] (control TSM, vehicle alone 24 h), 67.8±6.0%; in test [1] (control serum-treated TSM), 47.0±4.7%.
As to “SpA: Sepharose Staphylococcus protein A used to deplete the sensitizing serum of its immune complexes”, the “Effect on relaxation responsiveness to isoproterenol” value in test [1] (setting [3]) is given as “neither anti-CD23 MAb nor pretreatment of the control serum with SpA affected”. Further, in test [1] (atopic asthmatic serum-sensitized TSM, tissue pretreated with antibody (anti-CD23 40 μg/ml, anti-CD16 2 μg/ml) or serum depleted with SpA), the “Effect on the attenuated isoproterenol-induced relaxation responses” value is “ablated”. Further, in test [2] (setting [3]), the “Effect on contractility of the tissue to ACh” value is on record as “neither anti-CD23 MAb nor pretreatment of the control serum with SpA affected”. Further, in test [2] (atopic asthmatic serum-sensitized TSM, tissue pretreated with antibody (anti-CD23 40 μg/ml, anti-CD16 2 μg/ml) or serum pre-treated with SpA), the “Effect on the induced augmented constrictor responses to ACh” value is “largely prevented”.
